Laboratory results published in patent publication US20240139198A1, “METHOD AND COMBINATION FOR TREATING TUMORS” (CURON BIOPHARMACEUTICAL (SHANGHAI) CO., LIMITED, priority 2021, published 2024).

Key:
[1] = tested on: A20 cells; assay: A20 mouse B-cell lymphoma animal model, tumor growth in Balb/c mice; format: in vivo
Procedure: The animal experiment was carried out in accordance with the requirements of AAALAC, and was approved by Bikai Animal Experiment Center IACUC to conduct. 6-8 week-old Balb/c mice (16-20 grams) were purchased from Beijing Weitong Lihua Experimental Animal Technology Co., Ltd. Each mouse was subcutaneously inoculated with 500,000 A20 cells, and inoculated on the right rear side of the back of the mouse. When the volume of the tumor grew to about 60mm^3, the mice were randomly assigned to the control group and the experimental group.
Mice were euthanized whnmorbidity or weightloss>20% was observed. Tumors were measured with a caliper twice weekly until final sacrifice. When a tumor size reached approximately 2000 mm^3 or there were animal health issues (20% area of a tumor ulcerated), the animals would be euthanized an date of death recorded. Solid tumor volumes were estimated from two dimensional tumor measurements and calculated according to the following equation:
Tumor volume (mm 3)=[length(mm)×width2 (mm 2)]/2
The percent median regression for a group at a given day was then obtained by taking the median of the individual percent regression calculated for each animal of the group at this day. The day of calculation was determined on the day when ΔT/ΔC (i.e., the ratio of medians of tumor volume changes from baseline between the treated and control groups)was calculated, except when median percent regression was not representative of the activity of the group. In that case, the day was determined on the first day when the median percent regression was maximal. Regressions were defined as partial (PR) if the tumor volume decreased to 50% of the tumor volume at the start of treatment. Complete regression (CR) was considered to have been achieved when tumor volume was below 14 mm^3 or could not be recorded. • RTV: Relative Tumor Volume. RTV=Vt/V0∘ Vt: Tumor volume at the end of an experimental period (treatment group). V0: tumor volume at the beginning of the experiment • TGI: Tumor Growth Inhibition value. TGI=[1−RTV(experimental group)/RTV(control group)]*100%
A two-way ANOVA type with factors treatment an day(repeated) was performed on tumor volume changes from baseline. In case of significant treatment day interaction or treatment effects, it was followed by a contrast analysis with Bonferroni-Holm correction for multiplicity to compare all treated groups to the control group at each day from day 8 to 27. Tumor volume changes from baseline were calculated for each animal and each day by subtracting the tumor volume on the day of first treatment from the tumor volume on the specified observation day. As heterogeneity of variances was observed between groups, the compound symmetric(CS) covariance structure with group=option was chosen for the ANOVA type model (SAS Institute Inc. (2008) SAS/STAT 9.2User′s Guide by CaryNC). All statistical analyses were performed using SAS version v9.2 software. A probability less than 5% (p<0.05).
6-8 weeks old balb/c mice (18-20 g) were purchased from Beijing Weitong Lihua Experimental Animal Technology Co., Ltd., and each mouse was subcutaneously inoculated with 500,000 A20 cells on the right rear side of the mouse's back. Treatment was initiated when tumors grew to a volume of approximately 62 mm^3. CN401 was orally administered at 150 mg/kg twice a day for 3 weeks.
CN202 was administered by intraperitoneal injection, 3 times a week at a dose of 5 mg/kg for 3 weeks. The control group was treated with vehicle (0.5% MC and PBS) without active product. Tumor size and body weight were measured three times a week. This animal experiment was carried out in accordance with the requirements of AAALAC, and was approved by Bikai Animal Experiment Center IACUC to conduct this animal experiment.
Referring to the experimental method of Example 1.1, the difference is that the dosage of CN202 is replaced by 15 mg/kg from 5 mg/kg. […]

[2] = tested on: EMT-6 cells (mouse triple-negative breast cancer cells); format: in vivo; conditions: Example 4, CN401 150 mg/kg oral, twice a week × 4 week (Table 12)
Procedure: Tumors were measured with a caliper twice weekly until final sacrifice. […] Solid tumor volumes were estimated from two dimensional tumor measurements and calculated according to the following equation: […]

With CC[C@H](Nc1ncnc2nc[nH]c12)c1oc2ccccc2c(=O)c1-c1cccc(F)c1 [CN401, (S)-2-(1-(9H-purin-6-ylamino)propylgroup)-3-(3-fluorophenyl)-4H-chromen-4-one] as the compound, how does the “CR(Number of mice with tumor regression/total amount of mice in each group)” value ([1]; Example 1.1, CN401 150 mg/kg p.o. bid × 3 weeks, day 22) read?
The value was 2/8.

What about the TGI % ([1]; Example 1.1, CN401 150 mg/kg p.o. bid × 3 weeks, day 22 vs vehicle control, p=0.034) of the same compound?
The TGI % was 55%.

What about the “CR(Number of mice with tumor regression/total amount of mice in each group)” value ([1]; Example 1.2, CN401 150 mg/kg p.o. bid × 3 weeks, day 22) of the same compound?
The value was 2/8.

What about the TGI % ([1]; Example 1.2, CN401 150 mg/kg p.o. bid × 3 weeks, day 22 vs vehicle control, p=0.034) of the same compound?
The TGI % was 55%.

And the “CR(Number of mice with tumor regression/total amount of mice in each group)” value ([1]; Example 2.1, CN401 150 mg/kg p.o. bid × 3 weeks, day 22)?
Its value is 0/7.

What about the TGI % ([1]; Example 2.1, CN401 150 mg/kg p.o. bid × 3 weeks, day 22 vs vehicle control, p=0.028) of the same compound?
Its TGI % is 45%.

And the “CR(Number of mice with tumor regression/total amount of mice in each group)” value ([1]; Example 3, CN401 150 mg/kg p.o. bid × 3 weeks, day 22)?
The value was 2/8.

And the TGI % ([1]; Example 3, CN401 150 mg/kg p.o. bid × 3 weeks, day 22 vs vehicle control, p=0.034)?
The TGI % was 55%.

What about the TGI % ([2]; 14th day vs vehicle control, p=0.87) of the same compound?
The TGI % was 3%.

And the “CR(Number of mice with tumor regression/total amount of mice in each group)” value ([2]; observed up to 80 days)?
Its value is 0/8.

Cc1nc(NC(=O)N2CCC[C@H]2C(N)=O)sc1-c1ccnc(C(C)(C)C(F)(F)F)c1 [Alpelisib, (2S)-1-N-[4-methyl-5-[2-(1,1,1-trifluoro-2-methylpropan-2-yl)pyridin-4-yl]-1,3-thiazol-2-yl]pyrrolidine-1,2-dicarboxamide, reference compound] was tested. Which “CR(Number of mice with tumor regression/total amount of mice in each group)” value ([1]; Example 2.2, Alpelisib 50 mg/kg p.o. qd × 3 weeks, day 21) did it give?
Its value is 0/7.

What about the TGI % ([1]; Example 2.2, Alpelisib 50 mg/kg p.o. qd × 3 weeks, day 21 vs vehicle control, p=0.161) of the same compound?
The TGI % was 37%.

Which “CR(Number of mice with tumor regression/total amount of mice in each group)” value ([1]; Example 3, anti-PD-L1 Ab (atezolizumab) 5 mg/kg i.p. biw × 3 weeks, day 22) does the source give for “Anti-PD-L1 Ab: Anti-PD-L1 antibody (Atezolizumab), CAS Number: 1380723-44-3 [reference compound]” here?
The value was 0/8.

And the TGI % ([1]; Example 3, anti-PD-L1 Ab (atezolizumab) 5 mg/kg i.p. biw × 3 weeks, day 22 vs vehicle control, p=0.57)?
The TGI % was 15%.
